Where “and” joins values, the source holds several entries; their conditions need not be identical. Equal entries are not always repeated. Toxic doses and inconclusive results are not listed.
System: CD2F1 mice, L1210 leukemia ip, survival T/C
Assay: NCI In Vivo Anticancer Drug Screen. Data for tumor model L1210 Leukemia (intraperitoneal) in CD2F1 (CDF1) mice
Conditions: higher = longer survival
Method in brief: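 Each value reflects a quotient of treated over vehicle control outcomes in mice with a transplanted tumor.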

[1] = endpoint: mean survival time, dose: 12.5 mg/kg/injection, schedule: Q01DX009 (ip), vehicle: saline with Tween-80
[2] = endpoint: mean survival time, dose: 25.0 mg/kg/injection, schedule: Q01DX009 (ip), vehicle: saline with Tween-80
[3] = endpoint: mean survival time, dose: 50.0 mg/kg/injection, schedule: Q01DX009 (ip), vehicle: saline with Tween-80
[4] = endpoint: mean survival time, dose: 100.0 mg/kg/injection, schedule: Q01DX009 (ip), vehicle: saline with Tween-80
[5] = endpoint: mean survival time, dose: 200.0 mg/kg/injection, schedule: Q01DX009 (ip), vehicle: saline with Tween-80
[6] = endpoint: mean survival time, dose: 400.0 mg/kg/injection, schedule: Q01DX009 (ip), vehicle: saline with Tween-80
[7] = endpoint: mean survival time, dose: 100.0 mg/kg/injection, schedule: Q04DX003 (ip), vehicle: saline with Tween-80
[8] = endpoint: mean survival time, dose: 200.0 mg/kg/injection, schedule: Q04DX003 (ip), vehicle: saline with Tween-80
[9] = endpoint: mean survival time, dose: 100.0 mg/kg/injection, schedule: Q04DX003 (ip), vehicle: saline
[10] = endpoint: mean survival time, dose: 200.0 mg/kg/injection, schedule: Q04DX003 (ip), vehicle: saline
[11] = endpoint: mean survival time, dose: 400.0 mg/kg/injection, schedule: Q04DX003 (ip), vehicle: saline with Tween-80
[12] = endpoint: mean survival time, dose: 100.0 mg/kg/injection, schedule: Q01DX001 (ip), vehicle: saline with Tween-80
[13] = endpoint: mean survival time, dose: 200.0 mg/kg/injection, schedule: Q01DX001 (ip), vehicle: saline with Tween-80

Compound: Cc1cc(N=Nc2ccc(S(=O)(=O)[O-])cc2)cc(C(=O)[O-])c1[OH2+].Cc1cc(N=Nc2ccc(S(=O)(=O)[O-])cc2)cc(C(=O)[O-])c1[OH2+].NC1CCCCC1N.[Na+].[Pt+4]
- T/C (endpoint: median survival time, dose: 6.25 mg/kg/injection, schedule: Q04DX003 (ip), vehicle: saline with Tween-80): 172 % of control
- T/C (endpoint: median survival time, dose: 6.25 mg/kg/injection, schedule: Q04DX003 (ip), vehicle: saline): 172 % of control
- T/C (endpoint: median survival time, dose: 12.5 mg/kg/injection, schedule: Q04DX003 (ip), vehicle: saline with Tween-80): 344 % of control
- T/C (endpoint: median survival time, dose: 12.5 mg/kg/injection, schedule: Q04DX003 (ip), vehicle: saline): 253 % of control
- T/C (endpoint: median survival time, dose: 25.0 mg/kg/injection, schedule: Q04DX003 (ip), vehicle: saline with Tween-80): 313 % of control
- T/C (endpoint: median survival time, dose: 25.0 mg/kg/injection, schedule: Q04DX003 (ip), vehicle: saline): 289 % of control
- T/C (endpoint: median survival time, dose: 50.0 mg/kg/injection, schedule: Q04DX003 (ip), vehicle: saline with Tween-80): 106 % of control

Compound: CS/C([S-])=N/[NH-].CS/C([S-])=N/[NH-].[Ni]
- T/C (endpoint: mean survival time, dose: 3.13 mg/kg/injection, schedule: Q01DX009 (ip), vehicle: saline with Tween-80): 97 % of control
- T/C (endpoint: mean survival time, dose: 12.5 mg/kg/injection, schedule: Q01DX001 (ip), vehicle: saline with Tween-80): 102 % of control

Compound: C=C(Br)CNC(=O)C(C)(C)C
- T/C [1]: 96 % of control
- T/C [2]: 96 % of control
- T/C [3]: 100 % of control
- T/C [4]: 93 % of control

Compound: CC(=O)CC(C)=Nc1ccc([N+](=O)[O-])cc1
- T/C [4]: 90 % of control
- T/C [5]: 93 % of control
- T/C [6]: 90 % of control

Compound: Cc1cc2c3ccc(C)[n+](C)c3ccc2n1C
- T/C (endpoint: mean survival time, dose: 1.19 mg/kg/injection, schedule: Q01DX001 (ip), vehicle: saline): 103 % of control
- T/C (endpoint: mean survival time, dose: 2.37 mg/kg/injection, schedule: Q01DX001 (ip), vehicle: saline): 109 % of control
- T/C (endpoint: mean survival time, dose: 4.75 mg/kg/injection, schedule: Q01DX001 (ip), vehicle: saline): 97 % of control

Compound: CC1(C)C2CC=C(CCOC(=S)S)C1C2.[Ni] (configuration not stated)
- T/C [2]: 96 % of control
- T/C [3]: 90 % of control
- T/C [4]: 96 % of control
- T/C [7]: 91 % of control
- T/C [8]: 93 % of control

Compound: CC(=O)OC1C(OC(C)=O)C2C(C)(C)CCCC2(C)C2Cc3occc3C(C)C12 (configuration not stated)
- T/C (endpoint: mean survival time, dose: 50.0 mg/kg/injection, schedule: Q04DX003 (ip), vehicle: saline with Tween-80): 96 % of control
- T/C (endpoint: mean survival time, dose: 50.0 mg/kg/injection, schedule: Q04DX003 (ip), vehicle: saline): 102 % of control
- T/C [7]: 98 % of control
- T/C [9]: 98 % of control
- T/C [8]: 96 % of control
- T/C [10]: 96 % of control
- T/C [11]: 91 % of control
- T/C (endpoint: mean survival time, dose: 400.0 mg/kg/injection, schedule: Q04DX003 (ip), vehicle: saline): 96 % of control

Compound: CCCCCC(C)C1(CCCC)NC(C)(C)CC(C)O1 (configuration not stated)
- T/C [9]: 95 % of control
- T/C [10]: 90 % of control

Compound: COc1ccc(N=N/N=c2\sc3cc(OC)ccc3n2C)cc1
- T/C (endpoint: median survival time, dose: 7.5 mg/kg/injection, schedule: Q01DX005 (ip), vehicle: saline with Tween-80): 100 % of control
- T/C (endpoint: median survival time, dose: 15.0 mg/kg/injection, schedule: Q01DX005 (ip), vehicle: saline with Tween-80): 105 % of control
- T/C (endpoint: median survival time, dose: 30.0 mg/kg/injection, schedule: Q01DX005 (ip), vehicle: saline with Tween-80): 108 % of control
- T/C (endpoint: median survival time, dose: 42.5 mg/kg/injection, schedule: Q01DX005 (ip), vehicle: saline with Tween-80): 102 % of control
- T/C (endpoint: median survival time, dose: 60.0 mg/kg/injection, schedule: Q01DX005 (ip), vehicle: saline with Tween-80): 105 % of control
- T/C (endpoint: median survival time, dose: 85.0 mg/kg/injection, schedule: Q01DX005 (ip), vehicle: saline with Tween-80): 102 % of control
- T/C (endpoint: median survival time, dose: 120.0 mg/kg/injection, schedule: Q01DX005 (ip), vehicle: saline with Tween-80): 104 % of control
- T/C (endpoint: median survival time, dose: 170.0 mg/kg/injection, schedule: Q01DX005 (ip), vehicle: saline with Tween-80): 100 % of control

Compound: CC(C)(C)CC(C)(C)Nc1nc(NC(C)(C)CC(C)(C)C)nc(NC(C)(C)CC(C)(C)C)n1
- T/C [1]: 101 % of control
- T/C [2]: 95 % of control
- T/C [3]: 97 % of control

Compound: CCOC(=O)c1ccc2c(ccc[n+]2C)c1
- T/C (endpoint: mean survival time, dose: 37.5 mg/kg/injection, schedule: Q01DX009 (ip), vehicle: saline with Tween-80): 112 % of control
- T/C (endpoint: mean survival time, dose: 75.0 mg/kg/injection, schedule: Q01DX009 (ip), vehicle: saline with Tween-80): 107 % of control
- T/C (endpoint: mean survival time, dose: 150.0 mg/kg/injection, schedule: Q01DX009 (ip), vehicle: saline with Tween-80): 103 % of control

Compound: ClCc1c2ccccc2cc2ccccc12
- T/C (endpoint: mean survival time, dose: 25.0 mg/kg/injection, schedule: Q04DX002 (ip), vehicle: saline with Tween-80): 104 % of control

Compound: CC1NC(C)SC(C)S1 (configuration not stated)
- T/C [7]: 101 % of control
- T/C [8]: 98 % of control

Compound: O=C(CC(=O)c1ccccc1O)c1ccccc1
- T/C [4]: 91 % of control
- T/C [5]: 88 % of control
- T/C [6]: 94 % of control

Compound: C=CCOC(OCC=C)C(OCC=C)OCC=C
- T/C [7]: 102 % of control
- T/C [8]: 96 % of control
- T/C [11]: 96 % of control

Compound: S=C(NNc1ccccc1)NC1CCCCC1
- T/C (endpoint: mean survival time, dose: 25.0 mg/kg/injection, schedule: Q01DX009 (ip), vehicle: acetone): 96 % of control
- T/C (endpoint: mean survival time, dose: 50.0 mg/kg/injection, schedule: Q01DX009 (ip), vehicle: acetone): 100 % of control
- T/C (endpoint: mean survival time, dose: 100.0 mg/kg/injection, schedule: Q01DX009 (ip), vehicle: acetone): 96 % of control

Compound: CC1=CC(c2ccccc2)(c2ccccc2)c2ccccc21
- T/C [12]: 104 % of control
- T/C [13]: 91 % of control

Compound: CC(=O)OCC1OC(n2ncc3c(Cl)ncnc32)C(OC(C)=O)C1OC(C)=O (configuration not stated)
- T/C (endpoint: mean survival time, dose: 12.5 mg/kg/injection, schedule: Q01DX005 (ip), vehicle: water): 93 % of control
- T/C (endpoint: mean survival time, dose: 25.0 mg/kg/injection, schedule: Q01DX005 (ip), vehicle: water): 93 % of control
- T/C (endpoint: mean survival time, dose: 50.0 mg/kg/injection, schedule: Q01DX005 (ip), vehicle: water): 101 % of control
- T/C (endpoint: mean survival time, dose: 100.0 mg/kg/injection, schedule: Q01DX005 (ip), vehicle: water): 112 % of control
- T/C (endpoint: mean survival time, dose: 200.0 mg/kg/injection, schedule: Q01DX005 (ip), vehicle: water): 103 % of control

Compound: Fc1c(F)c(F)c(Oc2c(F)c(F)c(Cl)c(F)c2F)c(F)c1F
- T/C [12]: 91 % of control
- T/C [13]: 91 % of control
- T/C (endpoint: mean survival time, dose: 400.0 mg/kg/injection, schedule: Q01DX001 (ip), vehicle: saline with Tween-80): 88 % of control

Compound: O=[N+]([O-])O
- T/C [3]: 86 % of control
- T/C [4]: 86 % of control

Compound: CCOC(=O)c1c(F)c(F)c(Oc2c(F)c(F)c(F)c(F)c2F)c(F)c1F
- T/C [7]: 86 % of control
- T/C [8]: 96 % of control
- T/C [11]: 92 % of control

Compound: c1ccc(Sc2cccc3ccccc23)cc1
- T/C [7]: 102 % of control
- T/C [8]: 93 % of control
- T/C [11]: 91 % of control

Compound: [CH3][Sn]1([CH3])[O]C2C(CO)OC(n3cnc4c(=O)[nH]c(N)nc43)C2[O]1 (configuration not stated)
- T/C (endpoint: mean survival time, dose: 12.5 mg/kg/injection, schedule: Q01DX005 (ip), vehicle: other): 98 % of control
- T/C (endpoint: mean survival time, dose: 25.0 mg/kg/injection, schedule: Q01DX005 (ip), vehicle: other): 101 % of control
- T/C (endpoint: mean survival time, dose: 50.0 mg/kg/injection, schedule: Q01DX005 (ip), vehicle: other): 102 % of control
- T/C (endpoint: mean survival time, dose: 100.0 mg/kg/injection, schedule: Q01DX005 (ip), vehicle: other): 93 % of control

Compound: CO[C@@H]1[C@H](O)CC[C@]2(CO2)[C@H]1[C@@]1(C)O[C@@H]1CC=C(C)C
- T/C (endpoint: median survival time, dose: 1.56 mg/kg/injection, schedule: Q01DX009 (ip), vehicle: saline with Tween-80): 101 % of control and 103 % of control
- T/C (endpoint: median survival time, dose: 3.12 mg/kg/injection, schedule: Q01DX009 (ip), vehicle: saline with Tween-80): 93 % of control and 102 % of control
- T/C (endpoint: median survival time, dose: 6.25 mg/kg/injection, schedule: Q01DX009 (ip), vehicle: saline with Tween-80): 97 % of control and 105 % of control
- T/C (endpoint: median survival time, dose: 12.5 mg/kg/injection, schedule: Q01DX009 (ip), vehicle: saline with Tween-80): 101 % of control and 102 % of control
- T/C (endpoint: median survival time, dose: 25.0 mg/kg/injection, schedule: Q01DX009 (ip), vehicle: saline with Tween-80): 101 % of control and 102 % of control
- T/C (endpoint: median survival time, dose: 50.0 mg/kg/injection, schedule: Q01DX009 (ip), vehicle: saline with Tween-80): 97 % of control and 103 % of control

Compound: CCN(CC)C(=O)Nc1cc2c3c(c1)CCCN3CCC2
- T/C [7]: 98 % of control
- T/C [8]: 96 % of control
- T/C [11]: 87 % of control

Compound: CC(Cl)CN(CC(C)Cl)c1ccc(N=Nc2ccccc2)cc1 (configuration not stated)
- T/C (endpoint: mean survival time, dose: 50.0 mg/kg/injection, schedule: Q01DX009 (ip), vehicle: Klucel (hydroxypropylcellulose) (HPC)): 100 % of control
- T/C (endpoint: mean survival time, dose: 100.0 mg/kg/injection, schedule: Q01DX009 (ip), vehicle: Klucel (hydroxypropylcellulose) (HPC)): 106 % of control
- T/C (endpoint: mean survival time, dose: 200.0 mg/kg/injection, schedule: Q01DX009 (ip), vehicle: Klucel (hydroxypropylcellulose) (HPC)): 90 % of control

Compound: Fc1ccc(-c2ccc(F)cc2)cc1
- T/C [7]: 101 % of control
- T/C [8]: 98 % of control
- T/C [11]: 98 % of control

Source: PubChem BioAssay AID256 (DTP/NCI, 2004)
